Where a name gives a salt, the structure may show the parent alone. Read-outs that look alike come from different tables or passages of the source.
Biological target: T1, human cardiac ion channel proteins hKir3.1/Kir3.4 (Homo sapiens, UniProt P48544+P48549)
T1 construct: expressed in transfected cells
T1 sequence (P48549 1-501): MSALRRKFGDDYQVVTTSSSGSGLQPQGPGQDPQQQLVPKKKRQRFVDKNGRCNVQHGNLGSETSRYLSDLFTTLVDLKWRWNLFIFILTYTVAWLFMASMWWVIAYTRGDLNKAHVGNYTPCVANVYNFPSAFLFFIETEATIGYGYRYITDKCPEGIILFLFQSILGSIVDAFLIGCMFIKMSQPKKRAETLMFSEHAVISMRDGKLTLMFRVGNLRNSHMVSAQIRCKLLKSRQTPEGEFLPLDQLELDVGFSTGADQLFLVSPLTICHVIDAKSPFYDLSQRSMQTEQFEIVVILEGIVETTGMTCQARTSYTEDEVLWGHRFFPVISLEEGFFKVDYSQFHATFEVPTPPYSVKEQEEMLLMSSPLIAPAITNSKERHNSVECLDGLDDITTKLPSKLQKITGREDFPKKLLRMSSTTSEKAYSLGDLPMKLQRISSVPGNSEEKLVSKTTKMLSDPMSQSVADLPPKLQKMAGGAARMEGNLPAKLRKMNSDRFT
T1 sequence (P48544 1-419): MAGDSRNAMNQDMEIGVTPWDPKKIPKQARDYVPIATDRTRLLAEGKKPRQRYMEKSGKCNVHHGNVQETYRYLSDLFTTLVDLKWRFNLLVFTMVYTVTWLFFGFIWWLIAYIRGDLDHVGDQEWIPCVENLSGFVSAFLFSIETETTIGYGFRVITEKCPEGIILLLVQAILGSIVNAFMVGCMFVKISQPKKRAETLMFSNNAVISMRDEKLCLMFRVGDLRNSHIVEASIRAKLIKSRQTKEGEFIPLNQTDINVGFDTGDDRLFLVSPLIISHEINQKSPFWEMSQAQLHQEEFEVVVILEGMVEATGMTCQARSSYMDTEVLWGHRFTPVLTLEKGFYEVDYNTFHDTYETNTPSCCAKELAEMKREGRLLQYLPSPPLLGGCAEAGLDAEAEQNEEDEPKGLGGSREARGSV
Test: Atomic Absorption Screening (AAS) Rb efflux assay of hKir3.1/Kir3.4 block, carbachol/high K+ stimulated, 10-pt or 7-pt CR
Type: cell-based
Details: AAS Rb efflux, CHO-K1 cells expressing hKir3.1/Kir3.4
How it was run: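 CHO-K1 cells stably co-expressing human Kir3.1/Kir3.4 were Rb-loaded for 3 h at 37° C, preincubated with compound 5 min at RT, then stimulated 10 min with 10 μM carbachol plus 20 mM KCl (final). Supernatant Rb was measured by atomic absorption. Compounds ran at 0.003–67 μmol/L (10-pt) or 0.037–27 μmol/L (7-pt), threefold dilutions; IC50s are means of >4 or >3 replicates respectively.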

[1] = 7-pt CR (0.037 to 27 μmol/L), mean of >3 replicates, read-out: IKACh IC50 7-pt CR, AAS
[2] = 10-pt CR (0.003 to 67 μmol/L), mean of >4 replicates, read-out: IKACh IC50 10-pt CR, AAS

IC50 [2] | SMILES | IC50 [1]
8500 nM | CCC[C@@H](CN1CC(O)C1)N(C)C(=O)c1ccc(F)cc1 [Example 8.6, (S)-4-Fluoro-N-(1-(3-hydroxyazetidin-1-yl)pentan-2-yl)-N-methylbenzamide] | –
1500 nM | Cc1cc(C(=O)N(C)[C@H](CN2CC(O)C2)C(C)C)ccc1F [Example 6.1, (S)-4-Fluoro-N-(1-(3-hydroxyazetidin-1-yl)-3-methylbutan-2-yl)-N,3-dimethylbenzamide] | –
1800 nM | CN(C(=O)c1ccc(Cl)cc1)[C@H](CN1CC(O)C1)C1CC1 [Example 7.2, (S)-4-Chloro-N-(1-cyclopropyl-2-(3-hydroxyazetidin-1-yl)ethyl)-N-methylbenzamide] | –
3500 nM | CC[C@H](C)[C@@H](CN1CC(O)C1)N(C)C(=O)c1ccc(C#N)cc1F [Example 29.7, 4-Cyano-2-fluoro-N-((2S,3S)-1-(3-hydroxyazetidin-1-yl)-3-methylpentan-2-yl)-N-methylbenzamide] | –
1300 nM | Cc1cc(C(=O)N(C)[C@H](CN2CC(O)C2)C2CC2)ccc1F [Example 7.1, (S)—N-(1-Cyclopropyl-2-(3-hydroxyazetidin-1-yl)ethyl)-4-fluoro-N,3-dimethylbenzamide] | –
78 nM | Cc1cc(C(=O)N(C)[C@H](CN2CC(O)C2)C2CCC2)ccc1F [Example 39.16, (S)—N-(1-Cyclobutyl-2-(3-hydroxyazetidin-1-yl)ethyl)-4-fluoro-N,3-dimethylbenzamide] | –
1100 nM | CCCC[C@@H](CN1CC(O)C1)N(C)C(=O)c1ccc(C#N)cc1 [Example 33.4, 4-Cyano-N-[(2S)-1-(3-hydroxyazetidin-1-yl)hexan-2-yl]-N-methylbenzamide] | –
3400 nM | CC(C)C[C@@H](CN1CC(O)C1)N(C)C(=O)c1ccc(C#N)cc1F [Example 38.6, 4-Cyano-2-fluoro-N-[(2S)-1-(3-hydroxyazetidin-1-yl)-4-methylpentan-2-yl]-N-methylbenzamide] | –
880 nM | CCC[C@@H](CN1CC(O)C1)N(C)C(=O)c1ccc(Cl)cc1 [Example 8.2, (S)-4-Chloro-N-(1-(3-hydroxyazetidin-1-yl)pentan-2-yl)-N-methyl-benzamide, hydrochloride] | –
5100 nM | CC(C)[C@@H](CN1CC[C@H](O)C1)N(C)C(=O)c1ccc(Cl)cc1 [Example 10.2, 4-Chloro-N-((S)-1-((S)-3-hydroxypyrrolidin-1-yl)-3-methylbutan-2-yl)-N-methylbenzamide hemi tartrate] | 2000 nM
590 nM | CN(C(=O)c1ccc(Br)cc1)[C@H](CN1CC(O)C1)C1CC1 [Example 4.4, (S)-4-Bromo-N-(1-cyclopropyl-2-(3-hydroxyazetidin-1-yl)ethyl)-N-methylbenzamide] | –
2600 nM | CC(C)[C@@H](CN1CC(O)C1)N(C)C(=O)c1ccc(Cl)cc1 [Example 6.2, (S)-4-Chloro-N-(1-(3-hydroxyazetidin-1-yl)-3-methylbutan-2-yl)-N-methylbenzamide] | –
1900 nM | CN(C(=O)c1ccc(F)c(Cl)c1)[C@H](CN1CC(O)C1)C1CC1 [Example 7.3, (S)-3-Chloro-N-(1-cyclopropyl-2-(3-hydroxyazetidin-1-yl)ethyl)-4-fluoro-N-methylbenzamide] | –
490 nM | CN(C(=O)c1ccc(C#N)cc1)[C@H](CN1CC(O)C1)C1CCC1 [Example 39.2, (S)-4-Cyano-N-(1-cyclobutyl-2-(3-hydroxyazetidin-1-yl)ethyl)-N-methylbenzamide] | –
1800 nM | CC(C)[C@@H](CN1CCC1)N(C)C(=O)c1ccc(Br)cc1.O=C(O)CCC(=O)O [Example 5.2] | –
72 nM | CN(C(=O)c1ccc(Cl)cc1)[C@H](CN1CC(O)C1)C1CCC1 [Example 39.14, (S)-4-Chloro-N-(1-cyclobutyl-2-(3-hydroxyazetidin-1-yl)ethyl)-N-methylbenzamide] | –
1300 nM | CC(C)C[C@@H](CN1CC(O)C1)N(C)C(=O)c1ccc(F)c(F)c1 [Example 38.1, 3,4-Difluoro-N-[(2S)-1-(3-hydroxyazetidin-1-yl)-4-methylpentan-2-yl]-N-methylbenzamide] | –
1700 nM | CCC[C@@H](CN1CC(O)C1)N(C)C(=O)c1ccc(F)c(F)c1 [Example 8.1, (S)-3,4-Difluoro-N-(1-(3-hydroxyazetidin-1-yl)pentan-2-yl)-N-methylbenzamide] | –
4200 nM | CC(C)[C@@H](CN1CCCC1)N(C)C(=O)c1ccc(F)cc1Cl [Example 1.17, (S)-2-Chloro-4-fluoro-N-methyl-N-(3-methyl-1-(pyrrolidin-1-yl)butan-2-yl)benzamide] | 2800 nM
550 nM | CCCC[C@@H](CN1CC(O)C1)N(C)C(=O)c1ccc(F)cc1 [Example 33.7, 4-Fluoro-N-[(2S)-1-(3-hydroxyazetidin-1-yl)hexan-2-yl]-N-methylbenzamide] | –
5900 nM | Cc1cc(C(=O)N(C)[C@H](CN2CCC2)C2CC2)ccc1F [Example 4.1, (S)—N-(2-(Azetidin-1-yl)-1-cyclopropylethyl)-4-fluoro-N,3-dimethylbenzamide] | –
110 nM | CC(C)C[C@@H](CN1CC(O)C1)N(C)C(=O)c1ccc(Cl)cc1 [Example 38.2, 4-Chloro-N-[(2S)-1-(3-hydroxyazetidin-1-yl)-4-methylpentan-2-yl]-N-methylbenzamide] | –
3700 nM | CCC[C@@H](CN1CCC1)N(C)C(=O)c1ccc(F)c(C)c1 [Example 1.4, (S)-N-(1-(Azetidin-1-yl)pentan-2-yl)-4-fluoro-N,3-dimethyl-benzamide] | –
3900 nM | CC[C@@H](CN1CC(O)C1)N(C)C(=O)c1ccc(Cl)cc1 [Example 39.12, (S)-4-Chloro-N-(1-(3-hydroxyazetidin-1-yl)butan-2-yl)-N-methylbenzamide] | –

SMILES | IC50 [2] | IC50 [1]
CC(C)[C@@H](CN1CCCC1)N(C)C(=O)c1ccc(F)c(Cl)c1 [Example 16.55, (S)-3-Chloro-4-fluoro-N-methyl-N-(3-methyl-1-(pyrrolidin-1-yl)butan-2-yl)benzamide] | 1900 nM | 1400 nM
CC(C)[C@@H](CN1CCCC1)N(C)C(=O)c1ccc(Br)cc1 [Example 19, (S)-1-(2-(4-bromo-N-methylbenzamido)-3-methylbutyl)pyrrolidinium 3-carboxy-2,3-dihydroxypropanoate] | 4600 nM | 820 nM
Cc1cccc(C(=O)N(C)[C@H](CN2CCCC2)C(C)C)c1 [Example 12.2, (S)-1-(2-(N,3-Dimethylbenzamido)-3-methylbutyl)pyrrolidinium 2,3-dihydroxysuccinate] | 16000 nM | 5800 nM
Cc1cc(C(=O)N(C)[C@H](CN2CCCC2)C(C)C)ccc1F [Example 12.1, (S)-4-Fluoro-N,3-dimethyl-N-(3-methyl-1-(pyrrolidin-1-yl)butan-2-yl)benzamide-dihydroxysuccinate] | 15000 nM | 1400 nM
CC(C)[C@@H](CN1CCCC1)N(C)C(=O)c1ccc(Cl)cc1 [Example 18, (S)-1-(2-(4-Chloro-N-methylbenzamido)-3-methylbutyl)pyrrolidinium chloride] | 6800 nM | 1200 nM
CC(C)[C@@H](CN1CCC1)N(C)C(=O)c1ccc(Cl)cc1 [Example 5.1, (S)-N-(1-(Azetidin-1-yl)-3-methylbutan-2-yl)-4-chloro-N-methylbenzamide] | 6000 nM | –
CCC[C@@H](CN1CCC1)N(C)C(=O)c1ccc(Cl)cc1 [Example 1.2, (S)-N-(1-(Azetidin-1-yl)pentan-2-yl)-4-chloro-N-methylbenzamide] | 3600 nM | –
